# Source: patent US9554573B2, “Binary insecticidal or pesticidal mixture” (BAYER CROPSCIENCE AKTIENGESELLSCHAFT, priority 2013, dated 2017)
# Columns and labels:
# Spodoptera frugiperda = Spodoptera frugiperda spray test (maize leaf sections); type: in vivo; settings: 144 h, after 6 d, read-out: Efficacy in % after 6 d (mortality)
# Procedure: Solvent: 78.0 parts by weight acetone
# • 1.5 parts by weight dimethylformamide Emulsifier: 0.5 parts by weight alkylarylpolyglycolether
# (§1) To produce a suitable preparation of the active compound, 1 part by weight of active compound is mixed with the stated amount of solvent and emulsifier, and the concentrate is diluted with emulsifier-containing water to the desired concentration. To produce a suitable preparation of a spore suspension the spores are diluted with emulsifier—containing water to the desired concentration.
# Maize (Zea mais) leaf sections are sprayed with a preparation of the active ingredient of the desired concentration. Once dry, the leaf sections are infested with fall armyworm larvae (Spodoptera frugiperda).
# After the specified period of time, mortality in % is determined. 100% means all caterpillars have been killed and 0% means none of the caterpillars have been killed. The mortality values determined thus are recalculated using the Colby-formula (see sheet 1).
# Phaedon cochleariae = Phaedon cochleariae spray test (Chinese cabbage leaf disks); type: in vivo; settings: foliar, 144 h, after 6 d, read-out: Efficacy in % after 6 d (mortality)
# Procedure: Solvent: 78.0 parts by weight of acetone
# • 1.5 parts by weight of dimethylformamide Emulsifier: 0.5 parts by weight of alkylaryl polyglycolether
# as §1, with “of” for “of the”, “emulsifier—containing” for “emulsifier-containing”
# Chinese cabbage (Brassica pekinensis) leaf-disks are sprayed with a preparation of the active ingredient of the desired concentration. Once dry, the leaf disks are infested with mustard beetle larvae (Phaedon cochleariae).
# After the specified period of time, mortality in % is determined. 100% means all beetle larvae have been killed and 0% means none of the beetle larvae have been killed. The mortality values determined thus are recalculated using the Colby-formula (see sheet 1).
compound,measurement,setting,value
Cc1cc(C(F)(C(F)(F)F)C(F)(F)F)ccc1NC(=O)c1cccc(Cl)c1C(=O)NC(C)(C)C#N [(I-5)],mortality at 0.25 g/ha,Spodoptera frugiperda; 0.25 g ai/ha,0%
same,mortality at 0.8 g/ha,Spodoptera frugiperda; 0.8 g ai/ha,33%
same,mortality at 3 g/ha,Spodoptera frugiperda; 3 g ai/ha,33%
same,mortality at 2.5 g/ha,Phaedon cochleariae; 2.5 g ai/ha,0%
same,mortality at 12 g/ha,Phaedon cochleariae; 12 g ai/ha,0%
